Results from patent US7084136B2, “Drug composition antagonistic to both PGD2/TXA2 receptors” (Shionogi & Co., Ltd., priority 2000, dated 2006).
Read-outs that look alike come from different tables or passages of the source.

Columns and labels:
TXA2 receptor [1] = molecular target: T1, TXA2 receptor (Homo sapiens, UniProt P21731); test: Binding activity to TXA2 receptor ([3H](+)-S-145 sodium salt, human platelet membrane fraction)
T1 construct: The human platelet membrane fraction was prepared in accordance with Experiment 1 (1); from tissue; host or cells: human platelet membrane fraction from blood of healthy volunteers
T1 sequence (P21731 1-343): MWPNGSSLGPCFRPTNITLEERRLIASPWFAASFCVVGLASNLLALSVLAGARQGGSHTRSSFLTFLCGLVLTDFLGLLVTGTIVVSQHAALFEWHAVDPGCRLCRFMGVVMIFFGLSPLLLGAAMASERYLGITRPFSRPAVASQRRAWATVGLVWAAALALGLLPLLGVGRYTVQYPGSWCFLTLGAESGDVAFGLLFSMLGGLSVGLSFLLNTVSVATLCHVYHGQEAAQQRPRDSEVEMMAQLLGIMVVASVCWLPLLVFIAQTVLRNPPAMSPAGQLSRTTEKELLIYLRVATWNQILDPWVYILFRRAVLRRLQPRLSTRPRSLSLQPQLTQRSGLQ
Protocol: Experiment 2 Binding Activity to TXA2 Receptor
(1) Preparation of Human Platelet Membrane Fraction
The human platelet membrane fraction was prepared in accordance with Experiment 1 (1).
(2) Binding to TXA2 Receptor
To a binding-reaction solution (50 mM Tris/HCl, pH 7.4, 10 mM MgCl2) (0.2 ml) were added the human platelet membrane fraction (0.05 mg) and 2 nM Sodium [^3H](+)-(5Z)-7-[3-endo-[(phenylsulfonyl)amino]bicyclo[2.2.1]hept-2-exo-yl]heptenoate (Japanese Patent Publication (Kokoku) No.79060/1993, hereinafter referred to as (+)-S-145 sodium salt) (26.4 Ci/mmol), and the mixture was reacted at room temperature for 90 min. After the reaction, the resultant mixture was filtered through a glass fiber filter paper and washed several times with cooled physiological saline, then the radioactivity retained on the filter paper was measured. The specific-binding ratio was calculated by subtracting the non-specific binding ratio (the radio activity similarly determined in the presence of 10 μM (+)-S-145 sodium salt) from the total binding. The inhibitory activity of each compound was expressed as the concentration required for 50% inhibition (IC50), which was determined by depicting a substitution curve by plotting the binding ratio (%) in the presence of each compound, where the binding ratio in the absence of a test compound is 100%.

PGD2 receptor = test: Acceleration of vascular permeability of conjunctiva induced by PGD2 (Evans blue dye leakage); type: in vivo, guinea pig; conditions: for ED50 PGD2: oral, 1 h before challenge, 0.1% PGD2 instillation, conjunctival dye leakage, guinea pigs; for inhibition of the increase in vascular permeability in conjunctiva by the stimulation with PGD2: summary of Table 80, oral 1 h before challenge, guinea pig
Protocol: (§1) Acceleration of Vascular Permeability of Conjunctiva Induced by PGD2 and U-46619
(§2) Using male Hartley guinea pigs, PGD2- and TxA2 receptor-mediated increase in conjunctival vascular permeability was produced by instillation of each 10 μl solution of either 0.1% PGD2 or U-46619 (TXA2 receptor agonist) to the both eyes without anesthetization. Immediately after that, Evans blue dye (20 mg/kg) was intravenously injected. 30 min after the challenge, guinea pigs were sacrificed by bleeding under anesthesia with Pentobarbital (30 mg/kg, i.p.) and the tissue of conjunctiva was removed. The dye leaked into the tissue was extracted in formamide 3 ml at 60° C. for more than 24 h, and then centrifuged. The absorbance of the supernatant was measured at 620 nm. The amount of dye was calculated from the calibration curve of Evans blue dye. Each compound was suspended in 0.5% methyl-cellulose and administrated orally at 1 h before the challenge. The antagonistic activity was evaluated by the inhibition ratio against the dye leaked into conjunctiva caused by PGD2 or U-46619 at each dose and then a 50% effective dose of inhibition (ED50 value) of each compound was calculated.

TxA2 receptor [2] = test: Acceleration of vascular permeability of conjunctiva induced by U-46619 (Evans blue dye leakage); type: in vivo, guinea pig; conditions: for ED50 TXA2 (U-46619): oral, 1 h before challenge, 0.1% U-46619 instillation, conjunctival dye leakage, guinea pigs; for inhibition of the increase in vascular permeability in conjunctiva caused by U-46619: summary of Table 80, oral 1 h before challenge, guinea pig
Protocol: as §1, §2

[3] = comparative experiment in accordance with Experiment 2, read-out: Experiment 2 Antagonistic activity against TXA2 receptor IC50

IC50 (TXA2 receptor [1]; [3])	IC50 (TXA2 receptor [1]; human platelet membrane fraction, 2 nM [3H](+)-S-145 sodium salt, read-out: Binding activity to TXA2 receptor in human platelet membrane fraction IC50)	Compound	ED50 PGD2 (PGD2 receptor)	inhibition of the increase in vascular permeability in conjunctiva by the stimulation with PGD2 (PGD2 receptor)	ED50 TXA2 (U-46619) (TxA2 receptor [2])	inhibition of the increase in vascular permeability in conjunctiva caused by U-46619 (TxA2 receptor [2])
3.8 nM		O=C(O)CCC/C=C\C[C@H]1[C@@H]2CC[C@@H](C2)[C@@H]1NS(=O)(=O)c1ccccc1 [A, reference compound]	>30 mg/kg	suppressed only U-46619-induced response	0.017 mg/kg	suppressed
2.3 nM	2.3 nM	Cc1cccn1S(=O)(=O)c1ccc(C(=O)N[C@@H]2[C@@H](CCCC/C=C/C(=O)O)C[C@H]3C[C@@H]2C3(C)C)s1 [II-7I-55a]	0.33 mg/kg	showed both responses	0.030 mg/kg	showed both responses
